In patent US10160726B2, “Quinolone derivatives as antibacterials” (priority 2014, dated 2018):
Values after ≈ are worked out from the molar mass of the structure shown. Where a name gives a salt, the structure may show the parent alone. Read-outs that look alike come from different tables or passages of the source.

Columns and labels:
Assay type in all cases: cell-based
[1] = system: P. aeruginosa NB52023 (efflux deficient K1542, ΔmexX ΔmexB); assay: microbe, parasite or virus in culture; conditions: Pseudomonas aeruginosa, 20 h, read-out: Antibacterial activity (MIC) NB52023
[2] = system: S. aureus NB01006-AVR005 (gyrA S84L, grlA S80F, grlB E471K); assay: microbe, parasite or virus in culture; conditions: Staphylococcus aureus, 20 h, read-out: Antibacterial activity (MIC) NB01006-AVR005
[3] = system: E. coli ATCC 25922 (NB27001); assay: MIC, broth microdilution (CLSI); conditions: Escherichia coli, ATCC25922; E. coli ATCC 25922; 35° C., 20 hours; read-out: Antibacterial activity (MIC) NB27001
[4] = system: E. coli NB27177 (efflux deficient CGSC 11430, ΔtolC732::kan); assay: microbe, parasite or virus in culture; conditions: Escherichia coli, 20 h, read-out: Antibacterial activity (MIC) NB27177
[5] = system: S. aureus ATCC 29213 (NB01001); assay: MIC, broth microdilution (CLSI); conditions: Staphylococcus aureus, ATCC29213; S. aureus ATCC 29213; 35° C., 20 hours; read-out: Antibacterial activity (MIC) NB01001
[6] = system: P. aeruginosa NB52023-CDK0006 (gyrA T83I, parC S87L); assay: microbe, parasite or virus in culture; conditions: Pseudomonas aeruginosa, 20 h, read-out: Antibacterial activity (MIC) NB52023-CDK0006
[7] = system: P. aeruginosa NB52019 (wild-type PAO1); assay: MIC, broth microdilution (CLSI); conditions: Pseudomonas aeruginosa, read-out: Antibacterial activity (MIC) NB52019
[8] = P. aeruginosa wild-type PAO1, 35° C., 20 hours

| Structure (SMILES) | MIC [1] [µg/mL] | MIC [2] [µg/mL] | MIC [3] [µg/mL] | MIC [4] [µg/mL] | MIC [5] [µg/mL] | MIC [6] [µg/mL] | MIC ([7]; PAO1, 20 h) [µg/mL] | MIC [7, 8] [µg/mL] |
| --- | --- | --- | --- | --- | --- | --- | --- | --- |
| COc1cc2ccc(N3CC[C@@H]([C@H](C)N)C3)c(C)c2n(C2CC2)c1=O [Example 80, 7-((R)-3-((S)-1-aminoethyl)pyrrolidin-1-yl)-1-cyclopropyl-3-methoxy-8-methylquinolin-2(1H)-one TFA salt] | > 32 | 2 | 32 | 2 | 1 | > 32 | > 32 | – |
| Cc1c(N2CCNCC2)c(F)cc2c(CN)cc(=O)n(C3CC3)c12 [Example 81.09, 4-(aminomethyl)-1-cyclopropyl-6-fluoro-8-methyl-7-(piperazin-1-yl)quinolin-2(1H)-one] | 0.5 (≈ 1.51 µM) | 16 (≈ 48.4 µM) | 2 (≈ 6.05 µM) | 0.5 (≈ 1.51 µM) | 16 (≈ 48.4 µM) | 2 (≈ 6.05 µM) | – | 4 (≈ 12.1 µM) |
| Cc1c(N2CC3CC3(N)C2)c(F)cc2c(CN)cc(=O)n(C3CC3)c12 (centres unmarked) [Example 81.23, 7-(1-amino-3-azabicyclo[3.1.0]hexan-3-yl)-4-(aminomethyl)-1-cyclopropyl-6-fluoro-8-methylquinolin-2(1H)-one] | 0.5 (≈ 1.46 µM) | 0.5 (≈ 1.46 µM) | 0.25 (≈ 0.73 µM) | 0.06 (≈ 0.175 µM) | 0.5 (≈ 1.46 µM) | 1 (≈ 2.92 µM) | 4 (≈ 11.7 µM) | – |
| Cc1c(N2CC[C@H](O)C2)c(F)cc2c(CN)cc(=O)n(C3CC3)c12 [Example 81.32, (S)-4-(aminomethyl)-1-cyclopropyl-6-fluoro-7-(3-hydroxypyrrolidin-1-yl)-8-methylquinolin-2(1H)-one] | 0.25 (≈ 0.754 µM) | 1 (≈ 3.02 µM) | 0.5 (≈ 1.51 µM) | < 0.03 | 0.5 (≈ 1.51 µM) | 1 (≈ 3.02 µM) | 4 (≈ 12.1 µM) | – |
| Cc1c(N2CCC(F)(CN)C2)c(F)cc2c(CN)cc(=O)n(C3CC3)c12 (centres unmarked) [Example 81.33, 4-(aminomethyl)-7-(3-(aminomethyl)-3-fluoropyrrolidin-1-yl)-1-cyclopropyl-6-fluoro-8-methylquinolin-2(1H)-one] | 0.5 (≈ 1.38 µM) | 1 (≈ 2.76 µM) | 0.5 (≈ 1.38 µM) | 0.06 (≈ 0.166 µM) | 0.5 (≈ 1.38 µM) | 1 (≈ 2.76 µM) | 2 (≈ 5.52 µM) | – |
| Cc1c(N2CCC(F)(CN)C2)c(F)c(F)c2c(CN)cc(=O)n(C3CC3)c12 (centres unmarked) [Example 83, 4-(aminomethyl)-7-(3-(aminomethyl)-3-fluoropyrrolidin-1-yl)-1-cyclopropyl-5,6-difluoro-8-methylquinolin-2(1H)-one TFA salt] | 0.25 | 0.125 | 0.125 | < 0.03 | 0.125 | 0.5 | 2 | – |
| Cc1c(N2CC[C@H](N)C2)c(F)c(F)c2c(CN)cc(=O)n(C3CC3)c12 [Example 83.6, (S)-4-(aminomethyl)-7-(3-aminopyrrolidin-1-yl)-1-cyclopropyl-5,6-difluoro-8-methylquinolin-2(1H)-one] | 0.25 (≈ 0.718 µM) | 2 (≈ 5.74 µM) | 0.5 (≈ 1.44 µM) | 0.06 (≈ 0.172 µM) | 1 (≈ 2.87 µM) | 0.5 (≈ 1.44 µM) | 4 (≈ 11.5 µM) | – |
| Cc1c(N2CCC(CN)C2)c(F)cc2c(CNCCN)cc(=O)n(C3CC3)c12.O=C(O)C(F)(F)F (centres unmarked) [Example 87, 4-(((2-aminoethyl)amino)methyl)-7-(3-(aminomethyl)pyrrolidin-1-yl)-1-cyclopropyl-6-fluoro-8-methylquinolin-2(1H)-one TFA salt] | 4 | 0.25 | 8 | 0.5 | 0.5 | 8 | – | 16 |
| CNCc1cc(=O)n(C2CC2)c2c(C)c(N3CCC(CN)C3)c(F)cc12.O=C(O)C(F)(F)F (centres unmarked) [Example 88, 7-(3-(aminomethyl)pyrrolidin-1-yl)-1-cyclopropyl-6-fluoro-8-methyl-4-((methylamino)methyl)quinolin-2(1H)-one TFA salt] | 2 | 2 | 4 | 0.25 | 1 | 4 | – | 16 |
| Cc1c(N2CCC(CN)C2)c(F)cc2c(CN(C)C)cc(=O)n(C3CC3)c12.O=C(O)C(F)(F)F (centres unmarked) [Example 89, 7-(3-(aminomethyl)pyrrolidin-1-yl)-1-cyclopropyl-4-((dimethylamino)methyl)-6-fluoro-8-methylquinolin-2(1H)-one TFA salt] | 16 | 4 | 4 | 0.5 | 1 | 32 | – | > 32 |
| Cc1c(N2CCC(CN)C2)c(F)cc2c(CCN)cc(=O)n(C3CC3)c12.O=C(O)C(F)(F)F (centres unmarked) [Example 91, 4-(2-aminoethyl)-7-(3-(aminomethyl)pyrrolidin-1-yl)-1-cyclopropyl-6-fluoro-8-methylquinolin-2(1H)-one TFA salt] | 8 | 1 | 8 | 1 | 1 | 16 | – | 16 |
| Cc1c(N2CCC(F)(CN)C2)c(F)cc2cc(CN)c(=O)n(C3CC3)c12 (centres unmarked) [Example 93, 3-(aminomethyl)-7-(3-(aminomethyl)-3-fluoropyrrolidin-1-yl)-1-cyclopropyl-6-fluoro-8-methylquinolin-2(1H)-one formic acid salt] | 4 | 16 | 8 | 1 | 2 | 8 | 8 | – |
| Cc1c(N2CCC(CN)C2)c(F)c(C#N)c2ccc(=O)n(C3CC3)c12.O=C(O)C(F)(F)F (centres unmarked) [Example 99, 7-(3-(aminomethyl)pyrrolidin-1-yl)-1-cyclopropyl-6-fluoro-8-methyl-2-oxo-1,2-dihydroquinoline-5-carbonitrile TFA salt] | 2 | 0.06 | 4 | 0.125 | 0.125 | 4 | – | > 32 |
| Cc1c(N2CCC(CN)C2)c(F)c(CN)c2ccc(=O)n(C3CC3)c12.O=C(O)C(F)(F)F (centres unmarked) [Example 100, 5-(aminomethyl)-7-(3-(aminomethyl)pyrrolidin-1-yl)-1-cyclopropyl-6-fluoro-8-methylquinolin-2(1H)-one TFA salt] | 8 | 4 | 32 | 2 | 8 | 16 | – | > 32 |
| Cc1c(F)c(N2CCC(CN)C2)c(C)c2c1ccc(=O)n2C1CC1.O=C(O)C(F)(F)F (centres unmarked) [Example 101, 7-(3-(aminomethyl)pyrrolidin-1-yl)-1-cyclopropyl-6-fluoro-5,8-dimethylquinolin-2(1H)-one TFA salt] | 8 | 0.125 | 8 | 0.125 | 0.5 | 16 | – | > 32 |
| Cc1c(N2CC[C@@H]([C@H](C)N)C2)c(F)c(F)c2ccc(=O)n(C3CC3)c12.O=C(O)C(F)(F)F [Example 106, 7-((R)-3-((S)-1-aminoethyl)pyrrolidin-1-yl)-1-cyclopropyl-5,6-difluoro-8-methyl quinolin-2(1H)-one TFA] | 0.5 | 0.015 | 0.125 | < 0.03 | 0.015 | 1 | – | 2 |
| Cl.NCc1c(N2CCC(F)(CN)C2)c(F)cc2ccc(=O)n(C3CC3)c12 (centres unmarked) [Example 111, 8-(aminomethyl)-7-(3-(aminomethyl)-3-fluoropyrrolidin-1-yl)-1-cyclopropyl-6-fluoroquinolin-2(1H)-one HCl salt] | 8 | 8 | 8 | 2 | 8 | 16 | – | > 32 |
| Cl.N#Cc1c(N2CC[C@H](N)C2)c(F)cc2ccc(=O)n(C3CC3)c12 [Example 113, (S)-7-(3-aminopyrrolidin-1-yl)-1-cyclopropyl-6-fluoro-2-oxo-1,2-dihydroquinoline-8-carbonitrile HCl salt] | 2 | 16 | 0.5 | 0.125 | 8 | 4 | – | 16 |
| N#Cc1c(N2CC[C@H](N)C2)c(F)cc2c(CN)cc(=O)n(C3CC3)c12 [Example 114, (S)-4-(aminomethyl)-7-(3-aminopyrrolidin-1-yl)-1-cyclopropyl-6-fluoro-2-oxo-1,2-dihydroquinoline-8-carbonitrile] | 2 (≈ 5.86 µM) | 32 (≈ 93.7 µM) | 2 (≈ 5.86 µM) | 0.5 (≈ 1.46 µM) | 16 (≈ 46.9 µM) | 4 (≈ 11.7 µM) | 16 (≈ 46.9 µM) | – |
| Cc1c(N2CCC(F)(CN)C2)c(F)c(F)c2c(CN)cc(=O)n(C3CCC3)c12 (centres unmarked) [Example 115, 4-(aminomethyl)-7-(3-(aminomethyl)-3-fluoropyrrolidin-1-yl)-1-cyclobutyl-5,6-difluoro-8-methylquinolin-2(1H)-one TFA salt] | 8 | 4 | 1 | 0.5 | 2 | 16 | > 32 | – |
